Values of other authors, collected in publication PMC9663686, “Proline, hydroxyproline, and pyrrolidone carboxylic acid derivatives as highly efficient but reversible transdermal permeation enhancers” (Scientific Reports, 2022).

How the values were obtained:
rat skin = conditions: rats; cited from earlier work
rats = conditions: cited from earlier work
HaCaT and 3T3 cells = conditions: read-out: in vitro cellular toxicities on HaCaT and 3T3 cells; cited from earlier work

Structure (SMILES): CCCCCCCCCCCCOC(=O)CCCCCN.CCCCCCCCCCCCOC(=O)CCCCCNC(=O)O [Transkarbam 12]
- in vivo dermal irritation and toxicity (rat skin): low in vivo dermal irritation and toxicity
- acute oral toxicity in rats (rats): no acute oral toxicity in rats
- IC50 (HaCaT and 3T3 cells): 21 to 26 µM
